# Source: PubChem BioAssay AID2060607 (Molecular Pharmacology Branch, DTP, NCI, 2025)
# System: 876862-298-R-J1-PDC complex spheroids, viability % test/control
# Assay: Anticancer human tumor 876862-298-R-J1-PDC patient-derived endometrial carcinoma cell line growth inhibition [CLK]
# Details: for IC50: curve of first compound; for viability, T/C: stronger effect = lower value
# Procedure, shortened: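 Multi-cell-type spheroids combined patient-derived tumor cells with HUVEC endothelial cells and human mesenchymal stem cells. Paired agents were dosed in half-log steps down from about clinical Cmax, or from 10 microM where Cmax was unknown.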
# [1] = second compound 0.0316 µM, first compound 0.0316 µM
# [2] = second compound 0.0316 µM, first compound 0.1 µM
# [3] = second compound 0.0316 µM, first compound 0.316 µM
# [4] = second compound 0.0316 µM, first compound 1 µM
# [5] = second compound 0.0316 µM, first compound 3.16 µM
# [6] = second compound 0.0316 µM, first compound 10 µM
# [7] = second compound 0.1 µM, first compound 0.0316 µM
# [8] = second compound 0.1 µM, first compound 0.1 µM
# [9] = second compound 0.1 µM, first compound 0.316 µM
# [10] = second compound 0.1 µM, first compound 1 µM
# [11] = second compound 0.1 µM, first compound 3.16 µM
# [12] = second compound 0.1 µM, first compound 10 µM
# [13] = second compound 0.316 µM, first compound 0.0316 µM
# [14] = second compound 0.316 µM, first compound 0.1 µM
# [15] = second compound 0.316 µM, first compound 0.316 µM
# [16] = second compound 0.316 µM, first compound 1 µM
# [17] = second compound 0.316 µM, first compound 3.16 µM
# [18] = second compound 0.316 µM, first compound 10 µM
# [19] = second compound 1 µM, first compound 0.0316 µM
# [20] = second compound 1 µM, first compound 0.1 µM
# [21] = second compound 1 µM, first compound 0.316 µM
# [22] = second compound 1 µM, first compound 1 µM
# [23] = second compound 1 µM, first compound 3.16 µM
# [24] = second compound 1 µM, first compound 10 µM
# [25] = second compound 3.16 µM, first compound 0.0316 µM
# [26] = second compound 3.16 µM, first compound 0.1 µM
# [27] = second compound 3.16 µM, first compound 0.316 µM
# [28] = second compound 3.16 µM, first compound 1 µM
# [29] = second compound 3.16 µM, first compound 3.16 µM
# [30] = second compound 3.16 µM, first compound 10 µM
# [31] = second compound 10 µM, first compound 0.0316 µM
# [32] = second compound 10 µM, first compound 0.1 µM
# [33] = second compound 10 µM, first compound 0.316 µM
# [34] = second compound 10 µM, first compound 1 µM
# [35] = second compound 10 µM, first compound 3.16 µM
# [36] = second compound 10 µM, first compound 10 µM
# 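Note: spheroids exposed to drugs for 7 days before readout.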
# 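Throughout, for viability, T/C: 100% = DMSO vehicle control wells.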
structure (smiles),measurement,setting,value
CC(C)CC(NC(=O)C(Cc1ccccc1)NC(=O)c1cnccn1)B(O)O (stereo unspecified) + CNC(=O)c1ccc(Nc2nc(OC3CCCC3)c3c(-c4ccc5nc(C)oc5c4)c[nH]c3n2)c(OC)c1,IC50,second compound 0.0316 µM,1.53 nM
same,IC50,second compound 0.1 µM,< 0.949 nM
same,IC50,second compound 0.316 µM,< 0.949 nM
same,IC50,second compound 1 µM,< 0.949 nM
same,IC50,second compound 3.16 µM,< 0.949 nM
same,IC50,second compound 10 µM,< 0.949 nM
same,"viability, T/C","second compound 0.0316 µM, first compound 0.000949 µM",78.1%
same,"viability, T/C","second compound 0.0316 µM, first compound 0.003 µM",10.6%
same,"viability, T/C","second compound 0.0316 µM, first compound 0.00949 µM",0.67%
same,"viability, T/C","second compound 0.0316 µM, first compound 0.03 µM",0.44%
same,"viability, T/C","second compound 0.0316 µM, first compound 0.0949 µM",1.97%
same,"viability, T/C","second compound 0.0316 µM, first compound 0.3 µM",1.37%
same,"viability, T/C","second compound 0.1 µM, first compound 0.000949 µM",47.3%
same,"viability, T/C","second compound 0.1 µM, first compound 0.003 µM",7.8%
same,"viability, T/C","second compound 0.1 µM, first compound 0.00949 µM",0.68%
same,"viability, T/C","second compound 0.1 µM, first compound 0.03 µM",0.53%
same,"viability, T/C","second compound 0.1 µM, first compound 0.0949 µM",1.95%
same,"viability, T/C","second compound 0.1 µM, first compound 0.3 µM",0.42%
same,"viability, T/C","second compound 0.316 µM, first compound 0.000949 µM",43.2%
same,"viability, T/C","second compound 0.316 µM, first compound 0.003 µM",5.92%
same,"viability, T/C","second compound 0.316 µM, first compound 0.00949 µM",1.95%
same,"viability, T/C","second compound 0.316 µM, first compound 0.03 µM",0.56%
same,"viability, T/C","second compound 0.316 µM, first compound 0.0949 µM",1.66%
same,"viability, T/C","second compound 0.316 µM, first compound 0.3 µM",0.96%
same,"viability, T/C","second compound 1 µM, first compound 0.000949 µM",38.4%
same,"viability, T/C","second compound 1 µM, first compound 0.003 µM",4.5%
same,"viability, T/C","second compound 1 µM, first compound 0.00949 µM",0.69%
same,"viability, T/C","second compound 1 µM, first compound 0.03 µM",0.62%
same,"viability, T/C","second compound 1 µM, first compound 0.0949 µM",1.84%
same,"viability, T/C","second compound 1 µM, first compound 0.3 µM",0.22%
same,"viability, T/C","second compound 3.16 µM, first compound 0.000949 µM",27.6%
same,"viability, T/C","second compound 3.16 µM, first compound 0.003 µM",3.22%
same,"viability, T/C","second compound 3.16 µM, first compound 0.00949 µM",0.41%
same,"viability, T/C","second compound 3.16 µM, first compound 0.03 µM",0.44%
same,"viability, T/C","second compound 3.16 µM, first compound 0.0949 µM",1.98%
same,"viability, T/C","second compound 3.16 µM, first compound 0.3 µM",1.11%
same,"viability, T/C","second compound 10 µM, first compound 0.000949 µM",23.3%
same,"viability, T/C","second compound 10 µM, first compound 0.003 µM",2.73%
same,"viability, T/C","second compound 10 µM, first compound 0.00949 µM",0.85%
same,"viability, T/C","second compound 10 µM, first compound 0.03 µM",0.4%
same,"viability, T/C","second compound 10 µM, first compound 0.0949 µM",0.82%
same,"viability, T/C","second compound 10 µM, first compound 0.3 µM",1.17%
CC1COCCN1c1cc(C2(S(C)(=N)=O)CC2)nc(-c2ccnc3[nH]ccc23)n1 (stereo unspecified) + CNC(=O)c1ccc(Nc2nc(OC3CCCC3)c3c(-c4ccc5nc(C)oc5c4)c[nH]c3n2)c(OC)c1,IC50,second compound 0.0316 µM,2200 nM
same,IC50,second compound 0.1 µM,< 31.6 nM
same,IC50,second compound 0.316 µM,< 31.6 nM
same,IC50,second compound 1 µM,< 31.6 nM
same,IC50,second compound 3.16 µM,< 31.6 nM
same,IC50,second compound 10 µM,< 31.6 nM
same,"viability, T/C",[1],70.2%
same,"viability, T/C",[2],84.7%
same,"viability, T/C",[3],75.5%
same,"viability, T/C",[4],69.8%
same,"viability, T/C",[5],40.9%
same,"viability, T/C",[6],22.5%
same,"viability, T/C",[7],47.2%
same,"viability, T/C",[8],50.9%
same,"viability, T/C",[9],42.7%
same,"viability, T/C",[10],44.6%
same,"viability, T/C",[11],24.3%
same,"viability, T/C",[12],15%
same,"viability, T/C",[13],43.8%
same,"viability, T/C",[14],41.5%
same,"viability, T/C",[15],39.1%
same,"viability, T/C",[16],30%
same,"viability, T/C",[17],20.5%
same,"viability, T/C",[18],11.4%
same,"viability, T/C",[19],34.4%
same,"viability, T/C",[20],37.4%
same,"viability, T/C",[21],28.3%
same,"viability, T/C",[22],22.6%
same,"viability, T/C",[23],13%
same,"viability, T/C",[24],6.42%
same,"viability, T/C",[25],29%
same,"viability, T/C",[26],21%
same,"viability, T/C",[27],17.2%
same,"viability, T/C",[28],11.7%
same,"viability, T/C",[29],8.18%
same,"viability, T/C",[30],3.92%
same,"viability, T/C",[31],22.4%
same,"viability, T/C",[32],19.5%
same,"viability, T/C",[33],14.1%
same,"viability, T/C",[34],12.6%
same,"viability, T/C",[35],7.52%
same,"viability, T/C",[36],3.99%
O=C(c1cc(Cc2n[nH]c(=O)c3ccccc23)ccc1F)N1CCN(C(=O)C2CC2)CC1 + CNC(=O)c1ccc(Nc2nc(OC3CCCC3)c3c(-c4ccc5nc(C)oc5c4)c[nH]c3n2)c(OC)c1,IC50,second compound 0.0316 µM,> 10000 nM
same,IC50,second compound 0.1 µM,2090 nM
same,IC50,second compound 0.316 µM,< 31.6 nM
same,IC50,second compound 1 µM,< 31.6 nM
same,IC50,second compound 3.16 µM,< 31.6 nM
same,IC50,second compound 10 µM,< 31.6 nM
same,"viability, T/C",[1],70.5%
same,"viability, T/C",[2],97%
same,"viability, T/C",[3],84.5%
same,"viability, T/C",[4],94.7%
same,"viability, T/C",[5],96.8%
same,"viability, T/C",[6],72.6%
same,"viability, T/C",[7],47.4%
same,"viability, T/C",[8],55%
same,"viability, T/C",[9],50.6%
same,"viability, T/C",[10],50.6%
same,"viability, T/C",[11],51.5%
same,"viability, T/C",[12],47.3%
same,"viability, T/C",[13],49.1%
same,"viability, T/C",[14],44.6%
same,"viability, T/C",[15],40.6%
same,"viability, T/C",[16],40.6%
same,"viability, T/C",[17],39.4%
same,"viability, T/C",[18],35.9%
same,"viability, T/C",[19],39.1%
same,"viability, T/C",[20],33.7%
same,"viability, T/C",[21],29.6%
same,"viability, T/C",[22],34.1%
same,"viability, T/C",[23],31.3%
same,"viability, T/C",[24],26.1%
same,"viability, T/C",[25],25.5%
same,"viability, T/C",[26],23.7%
same,"viability, T/C",[27],20.4%
same,"viability, T/C",[28],25.3%
same,"viability, T/C",[29],23.3%
same,"viability, T/C",[30],14.3%
same,"viability, T/C",[31],22%
same,"viability, T/C",[32],21.5%
same,"viability, T/C",[33],20.8%
same,"viability, T/C",[34],19.4%
same,"viability, T/C",[35],23.5%
same,"viability, T/C",[36],14.6%
